One series concerns brain / BBB. Briefly: In vivo brain uptake, fluorescence microscopy of rat brain. Also noted: species or system male Wistar rats. How it is done: (§1) In vivo studies were performed in male Wistar rats housed under a 12 hours light-dark cycle with free access to food and water. The animals were allocated in five groups, each consisting of three rats. Three animal groups received a single i.v. administration of NBD-gH625 at a concentration of 10 µg, 20 µg, and 40 µg/100 g bw, respectively. Control group received vehicle while another group received gH-625 (40 µg/100 g bw). Both NBD-gH625 and gH625 were dissolved in phosphate-buffered saline. After 3.5 hours from the i.v. administration, the animals were anesthetized with Zoletil® (40 mg/100 g) and euthanized by decapitation. This study was carried out in strict accordance with recommendations in the European Guide for the Care and Use of Laboratory Animals. Every effort was made to minimize animal pain and suffering. All animal protocols were approved by the Committee on the Ethics of Animal Experiments of the University of Napoli Federico II (Italy) and the Italian Minister of Health. (Protocol number 2012/000180).
The ex-vivo fluorescence microscopy analysis was performed to evaluate the distribution of NBD-gH625 on both sides of the BBB. In order to evaluate if there is a linear relationship between slides fluorescence integrated density and the amount of the peptide, a calibration curve was obtained. In particular, increasing amounts of NBD-gH625 (0–30 µM) were spotted on microscope slides and images at 515 nm were acquired (See the Results section) and analysed as described below. Brains were removed from animals, sectioned sagittally in thick slices, washed in PBS, mounted on coverslips, stained with DAPI (4′–6 Diamidino-2-Phenylindole, Dilactate) (Invitrogen, Carlsbad, CA, USA) and analysed under Axioskop fluorescence microscope (Zeiss). Images, at least 10 field of view (800 × 700 μm each) for each experimental class, were acquired using an AxioCam MRc5 (Zeiss) with DAPI filter (λex 350 nm; λem 461 nm) and a fluorescein isothiocyanate filter (λex 488 nm; λem 515 nm).
To evaluate the distribution of NBD-gH625 on both sides of the BBB, we estimated the fluorescence inside the blood vessels (without discriminating between the amount present in the blood and that present in the endothelial cells) and outside the blood vessels in 10 images for each experimental class. In detail, to assess the NBD-gH625 that reached without crossing the BBB, we selected blood vessels as the region of interest (ROI) (inbound) and evaluated the fluorescence intensity; then, on the non-zero thresholded images, an inversion of selected ROI was carried out to obtain the complementary ROI to calculate the amounts of NBD-gH625 which crossed the BBB (outbound).
The morphology of blood vessels was easily identified and outlined; the images were calibrated by ImageJ Rodbard function; integrated density values were calculated within the outlines exclusively, to be considered as inside fluorescence. Then, the thresholded and outlined images, to exclude both blood vessels and background values, were used to calculate the integrated density as outside fluorescence.
(§2) To evaluate the effect of concentration on the systemic delivery of NBD-gH625, a fluorescence microscopy analysis was performed as previously reported.
Briefly, livers and brains were isolated and fixed for 24 hours in Bouin’s fixative (71% picric acid, 5% acetic acid, 24% formaldehyde) and embedded in paraffin wax (Carlo Erba, Milan, Italy). Tissue sections (10 μm of thickness) were incubated in 0.1% Sudan Black B dissolved in 70% ethanol for 20 minutes to reduce the tissues autofluorescence. The excess of Sudan Black B was removed by washing with Tris-buffered saline containing 0.02% Tween 20[30],[31]. Sections were stained with DAPI to counterstain nuclei, then mounted with a coverslip in glycerol/phosphate-buffered saline (1:1) and acquired using an AxioCam MRc5 with DAPI filter (λex 350 nm; λem 461 nm) and a fluorescein isothiocyanate filter (λex 488 nm; λem 515 nm). […]

Another series concerns liver. Briefly: In vivo liver uptake, fluorescence microscopy of rat liver slices. Also noted: species or system male Wistar rats. The note with it: single i.v. 10, 20, 40 µg/100 g bw, 3.5 hours. The method, then:
as §1, with “Every effort was made to minimize animal pain and suffering. All animal protocols were approved by the Committee on the Ethics of Animal Experiments of the University of Napoli Federico II (Italy) and the Italian Minister of Health. (Protocol number 2012/000180).” left out
as §2
Briefly, livers and brains were isolated and fixed for 24 hours in Bouin’s fixative (71% picric acid, 5% acetic acid, 24% formaldehyde) and embedded in paraffin wax (Carlo Erba, Milan, Italy). […] All images were then analysed using Fiji 1.50 software to determine the mean fluorescence and the integrated density, defined as the product of the mean fluorescence per the region of interest (μm^2)[32]. The percentage of delivered vs administered NBD-gH625 was calculated.

[1] abbreviates: single i.v., 3.5 hours after administration, ex vivo brain slices, 515 nm.

Molecules are shown by their SMILES. Starred links: 1 amine or outer side, 2 acyl side, 3 side chain; linkers in the order of their positions; H or OH if unused. Non-standard residues stand in square brackets, D forms with d. Residues, ends and D or L forms follow the SMILES beside them. X1 = O=C([C@H](Cc1c[nH]cn1)N(c1ccc([N+](=O)[O-])c2nonc12)[*:1])[*:2]

With `CC[C@H](C)[C@H](NC(=O)[C@H](CC(C)C)NC(=O)[C@H](C)NC(=O)[C@H](CC(N)=O)NC(=O)[C@H](Cc1ccc(O)cc1)NC(=O)[C@H](Cc1c[nH]cn1)NC(=O)[C@H](C)NC(=O)[C@H](Cc1c[nH]c2ccccc12)NC(=O)[C@H](CCCNC(=N)N)NC(=O)[C@@H](NC(=O)[C@H](CC(C)C)NC(=O)[C@@H](NC(=O)[C@H](CO)NC(=O)[C@H](C)NC(=O)[C@H](CC(C)C)NC(=O)CNC(=O)[C@H](Cc1c[nH]cn1)Nc1ccc([N+](=O)[O-])c2nonc12)[C@@H](C)O)[C@@H](C)O)C(=O)N[C@@H](CCCNC(=N)N)C(=O)N[C@@H](C)C(=O)N[C@@H](Cc1ccccc1)C(N)=O` [NBD-gH625] (H-[X1]GLASTLTRWAHYNALIRAF-NH2), the “Integrated density of fluorescence on brain slices” value with brain / BBB (single i.v. 40 µg/100 g bw, 3.5 hours) is “comparable to the control”. Also, the “Integrated density of fluorescence on brain slices, dependence on dose” value in the series with brain / BBB (single i.v. 10, 20, 40 µg/100 g bw, 3.5 hours) was “lower peptide concentrations are able to improve the reaching of the brain more compared to higher concentrations”. For the same compound, in the series on brain / BBB (single i.v. 10, 20, 40 µg/100 g bw, 3.5 hours, integrated density calibrated with known amounts), the “Percentage of peptide delivered in brain vs administered, dependence on dose” value is recorded as “lower doses produced higher percentages of delivered peptide”. For the same compound, in the series on brain / BBB (setting [1]), the “Peptide crossing the BBB (fluorescence outside blood vessels, brain parenchyma)” value is on record as “crosses the BBB” and the “Peptide delivered to the BBB (fluorescence inside blood brain vessels, integrated density)” value is recorded as “reaches the BBB of treated animals”. In the series with liver, the “Integrated density of fluorescence on liver slices, dependence on dose” value was “lowest dose of NBD-gH625 has higher effect”. The “Percentage of peptide delivered in liver vs administered, dependence on dose” value with liver (integrated density calibrated with known amounts) is “lower doses produced higher percentages of delivered peptide”.

The record behind these values is paper PMC6138628, “Enhanced uptake of gH625 by blood brain barrier compared to liver in vivo: characterization of the mechanism by an in vitro model and implications for delivery” (Scientific Reports, 2018).
